Counter-ions that a name gives are not always drawn. Like-named read-outs stand apart in the source and are kept apart here.
Legend:
[1] = cited from earlier work
[2] = in vivo; cited from earlier work
rhinovirus = conditions: mice sensitized with HDM, challenged with HDM and rhinovirus; cited from earlier work
SSAO = target: T1, SSAO (Homo sapiens, UniProt Q16853); assay: Single-ascending dose clinical trial: plasma SSAO activity (H2O2 generation); type: in vivo
T1 construct: from tissue; host or cells: human plasma (healthy volunteers)
T1 sequence (Q16853 27-763 limits assumed): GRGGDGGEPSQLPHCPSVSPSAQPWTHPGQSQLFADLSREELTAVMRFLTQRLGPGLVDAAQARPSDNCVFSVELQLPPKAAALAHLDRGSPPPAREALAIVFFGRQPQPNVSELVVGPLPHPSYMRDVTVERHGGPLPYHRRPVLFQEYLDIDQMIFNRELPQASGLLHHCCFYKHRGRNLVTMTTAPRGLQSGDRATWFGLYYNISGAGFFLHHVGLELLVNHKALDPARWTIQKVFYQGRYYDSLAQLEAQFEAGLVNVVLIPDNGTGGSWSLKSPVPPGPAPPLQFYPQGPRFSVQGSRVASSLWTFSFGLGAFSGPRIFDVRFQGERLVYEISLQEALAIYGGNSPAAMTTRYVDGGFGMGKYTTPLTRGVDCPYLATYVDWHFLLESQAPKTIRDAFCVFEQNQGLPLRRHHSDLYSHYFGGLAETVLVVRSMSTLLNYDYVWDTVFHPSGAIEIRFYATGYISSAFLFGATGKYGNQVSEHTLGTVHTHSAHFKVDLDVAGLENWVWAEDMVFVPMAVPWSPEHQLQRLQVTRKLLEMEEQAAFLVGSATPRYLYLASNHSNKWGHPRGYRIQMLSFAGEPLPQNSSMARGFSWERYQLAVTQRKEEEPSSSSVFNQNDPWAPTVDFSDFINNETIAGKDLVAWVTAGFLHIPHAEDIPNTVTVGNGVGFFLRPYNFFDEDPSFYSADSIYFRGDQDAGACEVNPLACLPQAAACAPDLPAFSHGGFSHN
Procedure: (§1) Safety was assessed for 7 (±3) days after dosing.
(§2) Plasma PK parameters were determined by non-compartmental analysis.
SSAO-specific amine oxidase levels in plasma were determined using a kinetic-based assay essentially as described previously (Schilter et al). Endogenous monoamine oxidases A and B were inhibited by adding pargyline to plasma samples prior to measuring H2O2 generation levels in placebo and active recipients.

methylamine (MMA) = assay: Single-ascending dose clinical trial: plasma methylamine (MMA) levels; type: in vivo, human
Procedure: as §1

Rat model of NASH = conditions: in vivo
[3] = system: Influenza A virus, WSN/33 strain of H1N1; conditions: for Median survival time / Survival proportion / Prolonged survival time*: Formula 5 20 mg/kg QD, oseltamivir 5 mg/kg BID; for Prolonged survival time*: compared with vehicle group
[4] = mouse, in vivo; cited from earlier work
[5] = human, in vivo
Procedure: as §1, §2

[6] = Single-ascending dose clinical trial: safety, adverse events; type: in vivo, human
Procedure: as §1

## CC(C)(C)NC(=O)c1ccc(OC/C(=C/F)CN)cc1.Cl [BI 1467335]
[1]; by diminishing leukocyte rolling and adherence
  cytokine-induced cell migration: reduced
[1]; in vivo
  LPS-induced neutrophil lung migration: reduced
[2]
  airway infiltration of inflammatory immune cells: suppressed
  lung function: improved
  pulmonary fibrosis: reduced
rhinovirus
  airway hyperreactivity: reduced
  inflammatory cellular infiltrates: reduced

## COC1CCN(c2ncc(OC/C(=C/F)CN)cn2)CC1 [Compound of Formula 5]
SSAO; all dose cohorts, single dose
  inhibition of plasma SSAO activity at 4 hours post-dose: near complete inhibition
SSAO; single dose
  duration of suppression of plasma SSAO activity after a single dose: up to 1 week
SSAO; single doses, all subjects
  plasma amine oxidase activity: rapidly and potently decreased
SSAO; single oral dose 1 mg to 10 mg
  duration of SSAO activity inhibition after a single dose: up to seven days
Methylamine (MMA); across the dose range, single dose
  plasma methylamine: Dose-dependent increases
Methylamine (MMA); after single doses
  duration of dose-dependent increases in plasma MMA: up to 1 week
Methylamine (MMA); single dose
  Maximum plasma MMA levels: increased
Rat model of NASH
  liver fibrosis: decreases
  liver inflammation: decreases
[3]; […]
  Median survival time: 6 days
  Survival proportion: 0%
  Prolonged survival time*: 20%
[3]; monotherapy or in combination with oseltamivir
  exacerbation of viral replication or pathology: did not appear to exacerbate
[3]; prophylactic
  Prolonged survival time*: 20%

## CCOC(=O)C1=C[C@@H](OC(CC)CC)[C@H](NC(C)=O)[C@@H](N)C1 [Oseltamivir, oseltamivir, reference compound]
[3]; […]
  Median survival time: undefined
  Survival proportion: 100%
  Prolonged survival time*: undefined
[3]; prophylactic
  Prolonged survival time*: undefined

## NC/C(=C\F)COc1ccc(S(N)(=O)=O)cc1 [PXS-4681A]
[4]
  cytokine production: reduced
  effects relative to dexamethasone treatment: comparable
  leukocyte trafficking: reduced

## COC1CCN(c2ncc(OC/C(=C/F)CN)cn2)CC1 [toslyate salt of Formula 5]
[5]
  clearance from plasma: rapidly cleared from plasma
  plasma PK exposure dose proportionality: greater than dose proportional
[6]; All cohorts (n = 32)
  TEAE diagnosis and frequency: upper respiratory tract infection: 1 (3.1)
[6]; cohort 1, single oral dose 1 mg or placebo (n = 8)
  TEAE diagnosis and frequency: upper respiratory tract infection: 0
[6]; cohort 2, single oral dose 3 mg or placebo (n = 8)
  TEAE diagnosis and frequency: upper respiratory tract infection: 0
[6]; cohort 3, single oral dose 6 mg (n = 8)
  TEAE diagnosis and frequency: upper respiratory tract infection: 0
[6]; cohort 4, single oral dose 10 mg or placebo (n = 8)
  TEAE diagnosis and frequency: upper respiratory tract infection: 1 (12.5)
[6]; human, in vivo
  Subject incidence of TEAEs considered possibly treatment-related: 1 (3.1)
  Subject incidence of any TEAE: 5 (15.6)
  TEAE diagnosis and frequency: constipation: 1 (3.1)
  TEAE diagnosis and frequency: contact dermatitis: 2 (6.3)
  TEAE diagnosis and frequency: dysgeusia: 1 (3.1)
  TEAE diagnosis and frequency: headache: 1 (3.1)
  TEAE diagnosis and frequency: sore throat: 1 (3.1)
[6]; human, in vivo, po
  TEAE diagnosis and frequency: oral herpes: 1 (3.1)
